Converted amounts (≈) assume the structure as drawn.
Key:
[1] = system: LPS induced lung inflammation; assay: LPS induced lung inflammation in mice (FIG. 5); type: in vivo; details: compound P.O., LPS 3 mg/kg i.t., 18 h, lavage protein, cell counts, cytokine secretion, *P<0.05 versus Vehicle
Procedure: BC-1421 was administered to mice though P.O., and mice were then immediately challenged with LPS (3 mg/kg, i.t.) for an additional 18 h. Mice were then euthanized and lungs were lavaged with saline, harvested, and then homogenized. Lavage protein, cell counts and cytokine secretion were measured in. The data represent n=4-5 mice/group, *P<0.05 versus Vehicle.

TNFα cytokine release = assay: LPS-induced TNFα cytokine release in PBMC (ELISA); type: cell-based; details: LPS 50 ng/ml for 16 hours concurrently with compound, TNFα by ELISA
Procedure: Peripheral blood mononuclear cells (PBMC) (0.2 ml at 0.3×10^6/ml) were treated with lipopolysaccharide (LPS) (50 ng/ml) for 16 hours concurrently with each compound tested at different concentrations. TNFα cytokine release was monitored by ELISA. These concentrations were used to calculate the IC50.

[2] = U937 monocyte cell death, Trypan blue staining; type: cell-based; details: human; U937 monocytes, compound for 16 hours, Trypan blue dead cells; read-out: LC50
Procedure: U937 monocytes (0.2 ml at 0.3×10^6/ml) were treated with each compound at different concentrations for 16 hours. The cells were then stained with Trypan blue to identify dead cells, and to calculate the LC50. Combined values were used to generate therapeutic indexes (TI)=LC50/IC50.

SMILES	LPS induced lung inflammation [1]	IC50 (TNFα cytokine release)	CC50 at 16 h [2]
Fc1cc(CNCCNCc2ccc(-c3ncccn3)c(F)c2)ccc1-c1ncccn1 [BC-1421, N^1,N^2-bis(3-fluoro-4-(pyrimidin-2-yl)benzyl)ethane-1,2-diamine]	reduces LPS induced lung inflammation		
c1ncc(-c2ccc(CNCCNCc3ccc(-c4cncnc4)cc3)cc2)cn1 [Compound 201]		< 2 µg/mL	> 100 µg/mL
c1nnc(-c2ccc(CNCCNCc3ccc(-c4nnco4)cc3)cc2)o1 [Compound 202]		< 2 µg/mL	> 100 µg/mL
c1ncn(-c2ccc(CNCCNCc3ccc(-n4cncn4)cc3)cc2)n1 [Compound 203]		2 to 20 µg/mL (≈ 5.34 to 53.4 µM)	> 100 µg/mL
C[C@@H](CNCc1ccc(-c2ncccn2)cc1)NCc1ccc(-c2ncccn2)cc1 [Compound 204]		< 2 µg/mL	> 100 µg/mL
C[C@H](CNCc1ccc(-c2ncccn2)cc1)NCc1ccc(-c2ncccn2)cc1 [Compound 205]		< 2 µg/mL	> 100 µg/mL
CC(C)(CNCc1ccc(-c2ncccn2)cc1)NCc1ccc(-c2ncccn2)cc1 [Compound 206]		< 2 µg/mL	> 100 µg/mL
CC(C)(NCc1ccc(-c2ncccn2)cc1)C(C)(C)NCc1ccc(-c2ncccn2)cc1 [Compound 207]		2 to 20 µg/mL (≈ 4.42 to 44.2 µM)	> 100 µg/mL
c1ccc(-c2ncc(CNCCNCc3cnc(-c4ccccc4)nc3)cn2)cc1 [Compound 208]		2 to 20 µg/mL (≈ 5.04 to 50.4 µM)	10 to 100 µg/mL (≈ 25.2 to 252 µM)
c1ccc(-c2ncc(CNCCNCc3cnc(-c4ccccn4)nc3)cn2)nc1 [Compound 209]		2 to 20 µg/mL (≈ 5.02 to 50.2 µM)	10 to 100 µg/mL (≈ 25.1 to 251 µM)
c1nc(N2CCCC2)ncc1CNCCCCNCc1cnc(N2CCCC2)nc1 [Compound 210]		< 2 µg/mL	1 to 10 µg/mL (≈ 2.44 to 24.4 µM)

From patent US11072606B2, “Compositions and methods for treating diseases and conditions” (University of Pittsburgh—Of the Commonwealth System of …, priority 2014, dated 2021)
